Assay results: US10358436B2, “Kinase inhibitors and method of treating cancer” (University Health Network, priority 2010, dated 2019)
Structures can show the parent of a compound that is named as a salt.

Biological target: Aurora A (Homo sapiens (Human), UniProt O14965)
Assay: Aurora A inhibition assay (Z-Lyte)
Assay type: biochemical

Chain of Aurora A (O14965 whole entry): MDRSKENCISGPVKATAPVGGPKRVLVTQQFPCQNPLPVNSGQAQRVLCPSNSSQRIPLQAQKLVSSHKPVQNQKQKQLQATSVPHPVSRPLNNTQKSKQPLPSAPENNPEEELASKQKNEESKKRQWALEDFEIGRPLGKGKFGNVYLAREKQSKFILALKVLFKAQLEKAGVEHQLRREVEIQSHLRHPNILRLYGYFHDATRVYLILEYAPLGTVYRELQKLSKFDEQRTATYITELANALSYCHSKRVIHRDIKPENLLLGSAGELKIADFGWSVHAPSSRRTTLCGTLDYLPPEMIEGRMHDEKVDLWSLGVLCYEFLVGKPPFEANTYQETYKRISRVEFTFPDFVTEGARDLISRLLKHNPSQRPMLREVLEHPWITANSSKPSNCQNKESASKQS

SMILES | inhibition at 1 µM
COc1ccc2c(c1)[C@]1(C[C@H]1c1ccc3c(/C=C/c4cc(F)c(CN5CCOCC5)c(F)c4)n[nH]c3c1)C(=O)N2 (relative stereo) [Example A217, (1R*,2S*)-(E)-2-(3-(3,5-difluoro-4-(morpholinomethyl)styryl-1H-indazol-6-yl)-5′-methoxyspiro[cyclopropane-1,3′-indolin]-2′-one 2,2,2-trifluoroacetate] | > 50%
O=C1Nc2ccccc2[C@]12C[C@H]2c1ccc2c(/C=C/c3ccc(CN4CC[C@@H](F)C4)cc3)n[nH]c2c1 [Example A106, (1R,2S)-(E)-2-(3-(4-(((R)-3-fluoropyrrolidin-1-yl)methyl)styryl)-1H-indazol-6-yl)spiro[cyclopropane-1,3′-indolin]-2′-one 2,2,2-trifluoroacetate] | > 50%
COc1ccc2c(c1)[C@]1(C[C@H]1c1ccc3c(C#Cc4cccnc4)n[nH]c3c1)C(=O)N2 (relative stereo) [Example A52, (1R*,2S*)- and (1R*,2S*)-5′-methoxy-2-(3-(pyridin-3-ylethynyl)-1H-indazol-6-yl)spiro[cyclopropane-1,3′-indolin]-2′-one] | < 50%
O=C1Nc2ccccc2[C@]12C[C@H]2c1ccc2c(/C=C/c3ccc(CN4CCCC4)cc3)n[nH]c2c1 (relative stereo) [Example A60, (1R*,2S*)-(E)-2-(3-(4-(pyrrolidin-1-ylmethyl)styryl)-1H-indazol-6-yl)spiro[cyclopropane-1,3′-indolin]-2′-one 2,2,2-trifluoroacetate] | > 50%
CCN(CC)Cc1c(F)cc(/C=C/c2n[nH]c3cc([C@@H]4C[C@@]45C(=O)Nc4ccc(OC)cc45)ccc23)cc1F [Example A146, (1R,2S)-(E)-2-(3-(4-((diethylamino)methyl)-3,5-difluorostyryl)-1H-indazol-6-yl)-5′-methoxyspiro[cyclopropane-1,3′-indolin]-2′-one 2,2,2-trifluoroacetate] | < 50%
COc1ccc2c(c1)[C@]1(C[C@H]1c1ccc3c(-c4ccc(CN(C)C)cc4)n[nH]c3c1)C(=O)N2 (relative stereo) [Example A166, (1R*,2S*)-2-(3-(4-((dimethylamino)methyl)phenyl)-1H-indazol-6-yl)-5′-methoxyspiro[cyclopropane-1,3′-indolin]-2′-one 2,2,2-trifluoroacetate] | < 50%
CN1CCC(Oc2ccc(/C=C/c3n[nH]c4cc([C@@H]5C[C@@]56C(=O)Nc5ccccc56)ccc34)cc2)CC1 [Example A78, (1R,2S)-(E)-2-(3-(4-(1-methylpiperidin-4-yloxy)styryl)-1H-indazol-6-yl)spiro[cyclopropane-1,3′-indolin]-2′-one 2,2,2-trifluoroacetate salt] | > 50%
COc1ccc2c(c1)[C@@]1(C[C@@H]1c1ccc3c(-c4ccc(N5CCN(C)CC5)nc4)n[nH]c3c1)C(=O)N2 (stereo in doubt) [Example A16, (1S,2R)-5′-methoxy-2-(3-(6-(4-methylpiperazin-1-yl)pyridin-3-yl)-1H-indazol-6-yl)spiro[cyclopropane-1,3′-indolin]-2′-one] | < 50%
COc1ccc2c(c1)[C@]1(C[C@H]1c1ccc3c(/C=C/c4ccc(CN5CCOCC5)cc4)n[nH]c3c1)C(=O)N2 (relative stereo) [Example A41, (1R*,2S*)-(E)-5′-methoxy-2-(3-(4-(morpholinomethyl)styryl)-1H-indazol-6-yl)spiro[cyclopropane-1,3′-indolin]-2′-one 2,2,2-trifluoroacetate] | > 50%
COc1ccc2c(c1)[C@]1(C[C@H]1c1ccc3c(/C=C/c4cc(F)c(CN5CCOCC5)c(F)c4)n[nH]c3c1)C(=O)N2 [Example A218, (1R,2S)-(E)-2-(3-(3,5-difluoro-4-(morpholinomethyl)styryl)-1H-indazol-6-yl)-5′-methoxyspiro[cyclopropane-1,3′-indolin]-2′-one 2,2,2-trifluoroacetate] | > 50%
COc1ccc2c(c1)[C@]1(C[C@H]1c1ccc3c(-c4ccc(OCCN(C)C)cc4)n[nH]c3c1)C(=O)N2 [Example A69, (1R,2S)-2-(3-(4-(2-(dimethylamino)ethoxy)phenyl)-1H-indazol-6-yl)-5′-methoxyspiro[cyclopropane-1,3′-indolin]-2′-one 2,2,2-trifluoroacetate salt] | < 50%
COc1ccc2c(c1)[C@]1(C[C@H]1c1ccc3c(-c4ccc5c(c4)CNCC5)n[nH]c3c1)C(=O)N2 [Example A71, (1R,2S)-5′-methoxy-2-(3-(1,2,3,4-tetrahydroisoquinolin-7-yl)-1H-indazol-6-yl)spiro[cyclopropane-1,3′-indolin]-2′-one 2,2,2-trifluoroacetate salt] | < 50%

Next, values leading:

inhibition at 1 µM | SMILES
> 50% | CCN1Cc2ccc(/C=C/c3n[nH]c4cc([C@@H]5C[C@@]56C(=O)Nc5ccc(OC)cc56)ccc34)cc2C1 (relative stereo) [Example A190, (1R*,2S*)-2-(3-((E)-2-(2-ethylisoindolin-5-yl)vinyl)-1H-indazol-6-yl)-5′-methoxyspiro[cyclopropane-1,3′-indolin]-2′-one 2,2,2-trifluoroacetate]
> 50% | COc1ccc2c(c1)[C@]1(C[C@H]1c1ccc3c(/C=C/c4ccc(CN5CCCCC5)cc4)n[nH]c3c1)C(=O)N2 [Example A59, (1R,2S)-(E)-5′-methoxy-2-(3-(4-(piperidin-1-ylmethyl)styryl)-1H-indazol-6-yl)spiro[cyclopropane-1,3′-indolin]-2′-one 2,2,2-trifluoroacetate salt]
> 50% | COc1ccc2c(c1)[C@]1(C[C@H]1c1ccc3c(/C=C/c4cccc(CN(C)C)c4)n[nH]c3c1)C(=O)N2 (relative stereo) [Example A135, (1R*,2S*)-2-(3-(3-((dimethylamino)methyl)styryl)-1H-indazol-6-yl)-5′-methoxyspiro[cyclopropane-1,3′-indolin]-2′-one 2,2,2-trifluoroacetate]
> 50% | COc1ccc2c(c1)[C@]1(C[C@H]1c1ccc3c(/C=C/c4cccc(CN5CCOCC5)c4)n[nH]c3c1)C(=O)N2 (relative stereo) [Example A133, (1R*,2S*)-5′-methoxy-2-(3-(3-(morpholinomethyl)styryl)-1H-indazol-6-yl)spiro[cyclopropane-1,3′-indolin]-2′-one 2,2,2-trifluoroacetate]
> 50% | COc1ccc2c(c1)[C@]1(C[C@H]1c1ccc3c(/C=C/c4ccc(CN5CCCOCC5)cc4)n[nH]c3c1)C(=O)N2 [Example A73, (1R,2S)-(E)-2-(3-(4-((1,4-oxazepan-4-yl)methyl)styryl)-1H-indazol-6-yl)-5′-methoxyspiro[cyclopropane-1,3′-indolin]-2′-one 2,2,2-trifluoroacetate salt]
< 50% | O=C1Nc2ncc(Br)cc2[C@]12C[C@H]2c1ccc2c(/C=C/c3cccnc3)n[nH]c2c1 (relative stereo) [Example A27, (1R*,2S*)-5′-bromo-2-(3-((E)-2-(pyridin-3-yl)vinyl)-1H-indazol-6-yl)spiro[cyclopropane-1,3′-pyrrolo[2,3-b]pyridin]-2′(1′H)-one]
> 50% | COc1ccc2c(c1)[C@]1(C[C@H]1c1ccc3c(/C=C/c4ccc5c(c4)CCN(C)C5)n[nH]c3c1)C(=O)N2 [Example A75, (1R,2S)-5′-methoxy-2-(3-((E)-2-(2-methyl-1,2,3,4-tetrahydroisoquinolin-6-yl)vinyl)-1H-indazol-6-yl)spiro[cyclopropane-1,3′-indolin]-2′-one 2,2,2-trifluoroacetate salt]
> 50% | COc1ccc2c(c1)[C@]1(C[C@H]1c1ccc3c(/C=C/c4ccc(CN5CCOCC5)s4)n[nH]c3c1)C(=O)N2 [Example A105, (1R,2S)-5′-methoxy-2-(3-((E)-2-(5-(morpholinomethyl)thiophen-2-yl)vinyl)-1H-indazol-6-yl)spiro[cyclopropane-L3′-indolin]-2′-one hydrochloride]
> 50% | CCN1CCN(c2ccc(/C=C/c3n[nH]c4cc([C@@H]5C[C@@]56C(=O)Nc5ccc(OC)cc56)ccc34)cc2)CC1 [Example A187, (1R,2S)-(E)-2-(3-(4-(4-ethylpiperazin-1-yl)styryl)-1H-indazol-6-yl)-5′-methoxyspiro[cyclopropane-1,3′-indolin]-2′-one 2,2,2-trifluoroacetate]
> 50% | CC(C)CCN1C(=O)[C@@]2(C[C@H]2c2ccc3c(/C=C/c4ccc(CN(C)C)cc4)n[nH]c3c2)c2ccccc21 (relative stereo) [Example A176, (1R*,2S*)-(E)-2-(3-(4-((dimethylamino)methyl)styryl)-1H-indazol-6-yl)-1′-isopentylspiro[cyclopropane-1,3′-indolin]-2′-one]
> 50% | O=C1Nc2ccccc2[C@]12C[C@H]2c1ccc2c(/C=C/c3cc(F)c(CN4CCOCC4)c(F)c3)n[nH]c2c1 [Example A116, (1R,2S)-(E)-2-(3-(3,5-difluoro-4-(morpholinomethyl)styryl)-1H-indazol-6-yl)spiro[cyclopropane-1,3′-indolin]-2′-one 2,2,2-trifluoroacetate]
> 50% | O=C1Nc2ccccc2[C@]12C[C@H]2c1ccc2c(/C=C/c3ccccn3)n[nH]c2c1 (relative stereo) [Example A53, (1R*,2S*)-2-(3-((E)-2-(pyridin-2-yl)vinyl)-1H-indazol-6-yl)spiro[cyclopropane-1,3′-indolin]-2′-one]
> 50% | O=C1Nc2ccccc2[C@]12C[C@H]2c1ccc2c(/C=C/c3csc(CN4CCOCC4)c3)n[nH]c2c1 [Example A202, (1R,2S)-2-(3-((E)-2-(5-(morpholinomethyl)thiophen-3-yl)vinyl)-1H-indazol-6-yl)spiro[cyclopropane-1,3′-indolin]-2′-one 2,2,2-trifluoroacetate]
< 50% | CN1CCc2cc(-c3n[nH]c4cc([C@@H]5C[C@@]56C(=O)Nc5ccccc56)ccc34)ccc2C1 [Example A76, (1R,2S)-2-(3-(2-methyl-1,2,3,4-tetrahydroisoquinolin-6-yl)-1H-indazol-6-yl)spiro[cyclopropane-1,3′-indolin]-2′-one 2,2,2-trifluoroacetate salt]
